Source: ChEMBL document CHEMBL1201862, “PubChem BioAssay data set” (2004)
Blank lines part the entries; values can stand above or below the molecule they belong to. Calls of active or inactive are those of the source.

Experiments:
[1] = viability of PTEN-deleted HCT116 cells – cell-based, HCT116 PTEN knockout, dose response (AID 1047); assay type: functional;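 further: HCT116 colon tumor cells with PTEN knocked out; cells exposed to compound for 60 hours before readout; potency for loss of cell viability measured by luminescence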
[2] = viability of HCT116 lacking mutant beta-catenin – cell-based, human colon tumor, dose response (AID 1045); assay type: functional;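 further: HCT116 colon tumor cells with beta catenin knocked out; cells exposed to compound for 60 hours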
[3] = biological target: T1, High affinity choline transporter 1 (Homo sapiens, UniProt Q9GZV3); assay: human choline transporter blockers, potency – cell-based, 5-point CRC, membrane potential dye, dose response (AID 504840); assay type: functional
T1 sequence (Q9GZV3 whole entry): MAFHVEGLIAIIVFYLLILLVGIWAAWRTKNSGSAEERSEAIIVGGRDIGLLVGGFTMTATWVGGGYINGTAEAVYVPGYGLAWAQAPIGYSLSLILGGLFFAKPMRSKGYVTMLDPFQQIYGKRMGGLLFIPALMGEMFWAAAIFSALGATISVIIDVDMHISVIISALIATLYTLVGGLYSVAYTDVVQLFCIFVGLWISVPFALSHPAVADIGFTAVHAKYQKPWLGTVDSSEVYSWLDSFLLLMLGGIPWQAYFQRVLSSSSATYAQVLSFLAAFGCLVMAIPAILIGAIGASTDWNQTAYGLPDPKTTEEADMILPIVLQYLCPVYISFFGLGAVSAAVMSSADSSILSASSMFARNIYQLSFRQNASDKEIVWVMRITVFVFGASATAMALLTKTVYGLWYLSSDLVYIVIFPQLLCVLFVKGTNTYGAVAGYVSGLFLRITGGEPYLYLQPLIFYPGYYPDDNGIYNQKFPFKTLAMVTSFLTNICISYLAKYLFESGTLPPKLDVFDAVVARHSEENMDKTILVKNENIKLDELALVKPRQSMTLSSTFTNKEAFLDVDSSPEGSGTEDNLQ

[4] = biological target: T2, Fatty acid synthase (Homo sapiens, UniProt P49327); assay: inhibition of human FAS-TE enzyme activity – biochemical, endpoint fluorescence intensity, uHTS hits, dose response (AID 624327); assay type: functional;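 further: fluorescence from hydrolysis of an O-methyl fluorescein acyl ester substrate by the enzyme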
[5] = biological target: T2, Fatty acid synthase; assay: inhibition of human FAS-TE enzyme activity – biochemical, kinetic fluorescence intensity, dose response (AID 624326); assay type: functional;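 further: rate of fluorescence rise from hydrolysis of a fluorogenic O-methyl fluorescein ester substrate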
[6] = cells; assay type: functional, cell-based
[7] = cells; assay type: functional, cell-based; remark: listed apart in the source
[8] = biological target: T3, Type-1 angiotensin II receptor (Homo sapiens, UniProt P30556); assay: antagonism of angiotensin II type 1 receptor – cell-based, uHTS hits, selectivity assay for APJ receptor antagonist project, dose response (AID 463214); assay type: functional;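 further: antagonist potency against angiotensin II stimulated AT1 response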
T3 sequence (P30556 whole entry): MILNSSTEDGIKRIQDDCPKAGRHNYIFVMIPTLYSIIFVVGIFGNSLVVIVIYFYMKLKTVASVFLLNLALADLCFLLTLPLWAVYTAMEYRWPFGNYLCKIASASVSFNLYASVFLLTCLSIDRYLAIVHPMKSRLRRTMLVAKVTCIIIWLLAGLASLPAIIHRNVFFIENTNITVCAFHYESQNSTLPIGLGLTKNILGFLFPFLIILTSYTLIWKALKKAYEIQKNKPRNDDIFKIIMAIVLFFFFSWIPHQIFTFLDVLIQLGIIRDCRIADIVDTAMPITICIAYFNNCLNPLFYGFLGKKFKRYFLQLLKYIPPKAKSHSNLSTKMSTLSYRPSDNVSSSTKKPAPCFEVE

[9] = biological target: Beta-galactosidase (Escherichia coli, UniProt Q8VNN2); assay: PubChem AID 485352; assay type: functional
[10] = biological target: T4, Heat shock factor protein 1 (Mus musculus, UniProt P38532); assay: decrease of HSF1-responsive luciferase luminescence – cell-based, NIH3T3, dose retest, confirmation (AID 2382); assay type: functional;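 further: NIH3T3 fibroblasts with HSF1-driven luciferase reporter stressed by proteasome inhibitor MG132; luminescence from HSF1-driven luciferase expression after 8 hours of MG132 stress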
T4 sequence (P38532 whole entry): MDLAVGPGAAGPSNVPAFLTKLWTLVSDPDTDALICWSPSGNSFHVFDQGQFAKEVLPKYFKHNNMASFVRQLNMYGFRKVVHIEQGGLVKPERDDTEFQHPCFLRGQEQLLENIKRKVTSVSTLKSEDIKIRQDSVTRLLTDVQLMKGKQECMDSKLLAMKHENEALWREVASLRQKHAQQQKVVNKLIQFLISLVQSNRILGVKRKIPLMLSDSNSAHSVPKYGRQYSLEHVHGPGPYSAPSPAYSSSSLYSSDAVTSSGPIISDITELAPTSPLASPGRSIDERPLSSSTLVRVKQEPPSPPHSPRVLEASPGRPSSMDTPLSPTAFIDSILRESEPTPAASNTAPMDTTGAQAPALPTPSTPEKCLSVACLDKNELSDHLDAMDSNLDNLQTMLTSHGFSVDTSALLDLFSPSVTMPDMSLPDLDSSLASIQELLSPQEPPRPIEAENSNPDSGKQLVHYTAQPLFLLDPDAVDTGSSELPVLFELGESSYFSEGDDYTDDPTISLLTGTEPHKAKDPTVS

[11] = biological target: T5, Ubiquitin-conjugating enzyme E2 N (Homo sapiens, UniProt P61088); assay type: functional;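 further: Dose-response confirmation in a TR-FRET assay detecting UBC13-driven polyubiquitin chain formation, inhibition measured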
T5 sequence (P61088 whole entry): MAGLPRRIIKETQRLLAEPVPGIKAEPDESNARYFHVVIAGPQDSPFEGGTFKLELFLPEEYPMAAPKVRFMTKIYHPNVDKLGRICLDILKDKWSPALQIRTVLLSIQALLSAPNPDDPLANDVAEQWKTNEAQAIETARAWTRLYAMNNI

[12] = biological target: Voltage-dependent T-type calcium channel subunit alpha-1H (Homo sapiens, UniProt O95180); assay type: functional;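 further: channel activity triggered by adding a high calcium stimulation buffer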
[13] = Luminescence Cell-Based Dose Retest to Confirm Inhibitors of Cancer Stem Cells. [Related pubchem assays (depositor defined):AID2717, AID2721]; assay type: functional; settings: Homo sapiens
[14] = biological target: T6, Calpain-2 catalytic subunit (Sus scrofa, UniProt P43367); assay: m-calpain protease blockers, concentration series – biochemical, fluorogenic peptide substrate, dose response (AID 1420); assay type: functional
T6 sequence (P43367 whole entry): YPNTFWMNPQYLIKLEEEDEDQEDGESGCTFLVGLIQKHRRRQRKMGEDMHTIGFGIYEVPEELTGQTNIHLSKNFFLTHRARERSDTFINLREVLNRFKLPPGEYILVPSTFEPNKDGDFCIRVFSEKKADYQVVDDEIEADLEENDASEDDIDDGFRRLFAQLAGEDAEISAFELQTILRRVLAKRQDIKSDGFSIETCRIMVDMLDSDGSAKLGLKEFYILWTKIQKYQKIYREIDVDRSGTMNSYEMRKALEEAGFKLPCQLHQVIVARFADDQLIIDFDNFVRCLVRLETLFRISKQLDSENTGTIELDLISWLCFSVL

[15] = HIV-1 AD8 envelope cell-cell fusion blockers – cherry-pick, dose response (AID 652062); assay type: functional, cell-based;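 further: luciferase signal from cell-cell fusion driven by HIV-1 clade B AD8 Env; potency is for inhibitors of fusion seen as a drop in luminescence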
[16] = blockers of HIV-1 envelope-mediated cell-cell fusion – cherry-pick, dose response (AID 652057); assay type: functional, cell-based
[17] = blockers of HIV-1 ZM109 envelope-driven cell-cell fusion – HeLa effector, CEM target cells, luciferase, cherry-pick, dose response (AID 652058); assay type: functional, cell-based;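 further: luciferase signal from HIV-1 Env mediated cell-cell fusion of effector and target cells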
[18] = biological target: T7, Rac GTPase-activating protein 1 (Homo sapiens, UniProt Q9H0H5); assay: blockers of MgcRacGAP-driven Rac1 GTP hydrolysis – biochemical, ADP Hunter fluorescence, primary and confirmatory, confirmation (AID 624330); assay type: functional
T7 sequence (Q9H0H5 whole entry): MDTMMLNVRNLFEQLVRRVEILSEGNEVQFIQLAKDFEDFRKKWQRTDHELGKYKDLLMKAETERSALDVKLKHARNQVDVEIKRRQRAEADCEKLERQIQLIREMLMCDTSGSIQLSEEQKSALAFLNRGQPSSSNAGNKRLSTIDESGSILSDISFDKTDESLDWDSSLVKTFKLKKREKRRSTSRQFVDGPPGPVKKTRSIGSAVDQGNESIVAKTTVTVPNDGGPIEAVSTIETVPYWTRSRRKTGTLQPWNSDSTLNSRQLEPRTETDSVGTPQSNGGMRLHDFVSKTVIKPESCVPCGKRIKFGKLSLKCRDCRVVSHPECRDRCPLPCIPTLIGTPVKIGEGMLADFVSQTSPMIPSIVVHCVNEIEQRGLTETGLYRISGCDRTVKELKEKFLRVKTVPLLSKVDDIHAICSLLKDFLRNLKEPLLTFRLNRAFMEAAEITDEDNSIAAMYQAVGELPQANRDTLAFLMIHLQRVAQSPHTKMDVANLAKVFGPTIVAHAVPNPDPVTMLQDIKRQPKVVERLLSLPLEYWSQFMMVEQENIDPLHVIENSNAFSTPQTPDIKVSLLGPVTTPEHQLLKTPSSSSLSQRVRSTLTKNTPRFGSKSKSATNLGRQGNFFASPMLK

T2 sequence (P49327 whole entry): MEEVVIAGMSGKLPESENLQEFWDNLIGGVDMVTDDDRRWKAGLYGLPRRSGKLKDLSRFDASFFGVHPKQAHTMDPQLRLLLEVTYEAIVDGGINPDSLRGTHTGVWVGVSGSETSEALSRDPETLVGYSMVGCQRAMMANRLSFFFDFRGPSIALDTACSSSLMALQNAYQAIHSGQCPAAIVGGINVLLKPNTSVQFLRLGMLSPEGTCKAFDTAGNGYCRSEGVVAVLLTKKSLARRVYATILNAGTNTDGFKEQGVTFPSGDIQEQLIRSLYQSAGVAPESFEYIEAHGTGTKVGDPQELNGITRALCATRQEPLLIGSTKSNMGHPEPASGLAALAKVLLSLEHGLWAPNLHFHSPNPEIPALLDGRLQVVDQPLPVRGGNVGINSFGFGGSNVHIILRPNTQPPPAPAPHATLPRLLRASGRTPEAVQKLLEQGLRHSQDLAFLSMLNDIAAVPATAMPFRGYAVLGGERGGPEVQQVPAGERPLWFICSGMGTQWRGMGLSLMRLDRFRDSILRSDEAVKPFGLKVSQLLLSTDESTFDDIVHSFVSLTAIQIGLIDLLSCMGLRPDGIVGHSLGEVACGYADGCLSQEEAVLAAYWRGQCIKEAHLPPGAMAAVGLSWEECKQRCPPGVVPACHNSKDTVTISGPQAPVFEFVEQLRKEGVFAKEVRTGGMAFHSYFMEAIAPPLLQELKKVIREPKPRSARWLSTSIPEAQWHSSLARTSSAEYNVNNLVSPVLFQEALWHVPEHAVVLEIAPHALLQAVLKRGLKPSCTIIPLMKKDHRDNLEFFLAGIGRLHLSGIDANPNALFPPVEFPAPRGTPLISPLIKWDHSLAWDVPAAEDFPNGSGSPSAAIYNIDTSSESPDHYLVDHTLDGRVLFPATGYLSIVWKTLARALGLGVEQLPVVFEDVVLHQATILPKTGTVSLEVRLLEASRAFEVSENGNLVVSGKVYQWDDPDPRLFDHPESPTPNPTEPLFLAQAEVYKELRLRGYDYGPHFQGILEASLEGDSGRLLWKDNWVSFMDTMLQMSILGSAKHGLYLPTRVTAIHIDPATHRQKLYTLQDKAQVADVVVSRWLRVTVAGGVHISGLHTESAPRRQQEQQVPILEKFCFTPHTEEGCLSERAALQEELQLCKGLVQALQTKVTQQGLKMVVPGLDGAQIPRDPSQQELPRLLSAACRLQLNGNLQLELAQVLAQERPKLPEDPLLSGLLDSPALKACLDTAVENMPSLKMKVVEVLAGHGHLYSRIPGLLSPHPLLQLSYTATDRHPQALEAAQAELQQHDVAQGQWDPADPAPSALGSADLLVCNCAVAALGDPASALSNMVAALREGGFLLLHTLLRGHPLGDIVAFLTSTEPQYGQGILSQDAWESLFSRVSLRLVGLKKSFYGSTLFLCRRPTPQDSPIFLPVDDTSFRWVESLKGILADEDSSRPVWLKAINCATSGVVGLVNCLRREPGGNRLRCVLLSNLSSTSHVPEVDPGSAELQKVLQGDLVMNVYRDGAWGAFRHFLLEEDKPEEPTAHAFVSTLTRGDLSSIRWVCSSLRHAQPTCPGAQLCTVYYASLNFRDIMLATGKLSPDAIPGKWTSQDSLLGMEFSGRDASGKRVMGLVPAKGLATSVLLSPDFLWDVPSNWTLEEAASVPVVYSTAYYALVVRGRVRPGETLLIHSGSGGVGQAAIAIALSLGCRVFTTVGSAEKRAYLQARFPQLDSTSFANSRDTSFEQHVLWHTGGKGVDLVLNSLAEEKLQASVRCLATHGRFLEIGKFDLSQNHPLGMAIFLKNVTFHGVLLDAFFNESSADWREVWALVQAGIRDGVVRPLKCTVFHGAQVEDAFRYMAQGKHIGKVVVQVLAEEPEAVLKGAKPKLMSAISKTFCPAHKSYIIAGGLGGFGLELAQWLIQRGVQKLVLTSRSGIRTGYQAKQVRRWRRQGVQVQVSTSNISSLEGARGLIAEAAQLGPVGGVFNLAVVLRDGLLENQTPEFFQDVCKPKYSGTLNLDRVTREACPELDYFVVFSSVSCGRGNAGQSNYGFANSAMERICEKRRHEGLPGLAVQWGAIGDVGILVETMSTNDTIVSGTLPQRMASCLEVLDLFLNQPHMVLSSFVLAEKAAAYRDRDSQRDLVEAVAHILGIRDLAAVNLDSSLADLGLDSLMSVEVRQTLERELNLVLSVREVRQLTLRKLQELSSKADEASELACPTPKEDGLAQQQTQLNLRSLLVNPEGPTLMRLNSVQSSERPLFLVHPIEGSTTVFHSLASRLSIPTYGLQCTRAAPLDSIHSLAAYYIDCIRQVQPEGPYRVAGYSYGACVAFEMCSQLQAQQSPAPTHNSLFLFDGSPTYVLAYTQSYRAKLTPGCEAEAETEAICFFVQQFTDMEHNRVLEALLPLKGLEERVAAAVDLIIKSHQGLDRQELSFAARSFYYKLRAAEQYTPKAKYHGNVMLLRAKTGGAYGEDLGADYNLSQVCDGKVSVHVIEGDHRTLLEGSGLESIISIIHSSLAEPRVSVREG
Voltage-dependent T-type calcium channel subunit alpha-1H, sequence (O95180 whole entry): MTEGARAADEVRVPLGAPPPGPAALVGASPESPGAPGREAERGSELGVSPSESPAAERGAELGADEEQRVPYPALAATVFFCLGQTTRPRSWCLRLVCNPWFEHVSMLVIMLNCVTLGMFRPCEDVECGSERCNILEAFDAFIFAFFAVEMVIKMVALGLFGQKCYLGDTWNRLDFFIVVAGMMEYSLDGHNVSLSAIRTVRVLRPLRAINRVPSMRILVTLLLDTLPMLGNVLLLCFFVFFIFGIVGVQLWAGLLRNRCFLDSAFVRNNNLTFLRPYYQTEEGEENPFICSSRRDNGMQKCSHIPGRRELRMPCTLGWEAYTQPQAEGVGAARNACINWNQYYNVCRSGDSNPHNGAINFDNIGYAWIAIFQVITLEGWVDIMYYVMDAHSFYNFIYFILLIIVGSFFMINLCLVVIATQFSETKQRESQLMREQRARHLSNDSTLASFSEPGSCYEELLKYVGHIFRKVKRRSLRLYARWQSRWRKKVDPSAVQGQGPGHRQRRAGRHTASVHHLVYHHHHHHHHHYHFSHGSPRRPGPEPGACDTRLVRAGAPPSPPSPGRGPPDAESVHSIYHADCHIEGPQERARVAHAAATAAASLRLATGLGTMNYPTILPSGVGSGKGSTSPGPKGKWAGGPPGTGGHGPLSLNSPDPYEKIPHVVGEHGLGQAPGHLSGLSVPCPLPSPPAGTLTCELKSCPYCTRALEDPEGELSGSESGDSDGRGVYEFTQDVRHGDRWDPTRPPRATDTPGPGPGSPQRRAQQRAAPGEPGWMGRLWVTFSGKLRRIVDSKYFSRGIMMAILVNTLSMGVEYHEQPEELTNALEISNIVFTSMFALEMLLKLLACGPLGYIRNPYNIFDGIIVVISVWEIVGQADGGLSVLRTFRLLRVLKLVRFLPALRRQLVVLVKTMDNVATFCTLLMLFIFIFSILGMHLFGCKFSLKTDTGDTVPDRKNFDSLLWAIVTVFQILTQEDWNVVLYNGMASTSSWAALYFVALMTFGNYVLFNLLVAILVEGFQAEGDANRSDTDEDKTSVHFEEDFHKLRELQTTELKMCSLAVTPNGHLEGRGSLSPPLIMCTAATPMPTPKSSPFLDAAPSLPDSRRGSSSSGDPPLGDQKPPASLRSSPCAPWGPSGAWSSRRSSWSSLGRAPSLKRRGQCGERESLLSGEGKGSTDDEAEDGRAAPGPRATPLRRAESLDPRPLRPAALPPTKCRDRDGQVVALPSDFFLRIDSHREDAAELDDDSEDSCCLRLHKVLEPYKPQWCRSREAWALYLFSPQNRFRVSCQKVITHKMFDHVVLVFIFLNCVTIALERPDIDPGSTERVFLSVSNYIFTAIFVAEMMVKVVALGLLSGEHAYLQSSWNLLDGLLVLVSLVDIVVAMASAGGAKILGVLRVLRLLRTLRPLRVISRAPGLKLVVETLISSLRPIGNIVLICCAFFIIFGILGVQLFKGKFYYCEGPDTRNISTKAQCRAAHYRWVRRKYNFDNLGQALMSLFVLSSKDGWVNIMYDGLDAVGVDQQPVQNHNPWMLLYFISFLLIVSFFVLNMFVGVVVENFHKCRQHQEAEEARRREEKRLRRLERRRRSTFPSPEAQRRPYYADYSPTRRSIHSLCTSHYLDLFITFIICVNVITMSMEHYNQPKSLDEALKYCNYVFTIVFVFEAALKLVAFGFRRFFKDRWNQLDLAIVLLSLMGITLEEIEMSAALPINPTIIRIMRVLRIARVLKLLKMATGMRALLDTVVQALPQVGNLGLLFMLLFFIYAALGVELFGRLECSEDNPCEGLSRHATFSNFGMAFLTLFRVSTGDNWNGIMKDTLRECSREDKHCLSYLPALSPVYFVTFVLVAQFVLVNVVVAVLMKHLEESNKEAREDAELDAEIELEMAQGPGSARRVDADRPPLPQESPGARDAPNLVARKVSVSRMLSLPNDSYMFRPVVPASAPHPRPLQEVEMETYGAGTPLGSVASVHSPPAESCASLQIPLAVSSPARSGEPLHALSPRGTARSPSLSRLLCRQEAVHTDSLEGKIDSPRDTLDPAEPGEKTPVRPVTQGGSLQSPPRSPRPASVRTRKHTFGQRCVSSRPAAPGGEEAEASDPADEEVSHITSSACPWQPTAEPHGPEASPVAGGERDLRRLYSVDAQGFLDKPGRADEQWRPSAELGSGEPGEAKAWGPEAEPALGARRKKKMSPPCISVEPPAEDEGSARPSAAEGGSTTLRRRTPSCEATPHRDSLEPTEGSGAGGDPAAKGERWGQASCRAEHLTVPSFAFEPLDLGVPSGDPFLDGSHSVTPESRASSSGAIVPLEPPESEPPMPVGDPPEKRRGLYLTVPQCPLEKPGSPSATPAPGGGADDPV

IC50 [3]: 0.794 µM (active)
SMILES: CCOC(=O)c1cccc(NC(=O)CSc2nnc(C)n2Cc2ccccc2)c1

IC50 [4]: 5.21 µM (active)
IC50 [5]: 4.83 µM (active)
SMILES: O=C(O)CCN(CC(=O)c1ccc(Cl)cc1)S(=O)(=O)c1ccc([N+](=O)[O-])cc1

IC50 [3]: 11.8 µM (active)
SMILES: CCCCn1nc2cc(C(=O)NCCc3cccs3)ccc2c1OCC

IC50 [4]: 2.25 µM (active)
IC50 [5]: 2.02 µM (active)
SMILES: COc1ccc(CC(=O)N(C)Cc2ccc(C(C)(C)C)cc2)cc1S(=O)(=O)N1CCOCC1

IC50 [8]: 39.3 µM (not active)
EC50 [9]: > 40 µM (inactive)
SMILES: Cc1ccccc1N=C(S)NNc1ncc(C(F)(F)F)cc1Cl

IC50 [4]: 0.979 µM (active)
IC50 [5]: 1.12 µM (active)
SMILES: O=C(COC(=O)c1cc([N+](=O)[O-])ccc1Cl)NC1CCCC1

IC50 [3]: 13.8 µM (active)
IC50 [11]: > 20 µM (inactive)
SMILES: COc1ccc(CCN(C)C(=O)c2ccc(COc3ccccc3)o2)cc1OC

EC50 [12]: 8.73 µM (active)
SMILES: Cc1nc(-c2ccccc2)sc1-c1nc(-c2cccnc2)ncc1S(=O)(=O)c1ccccc1

EC50 [12]: 10.3 µM (active)
SMILES: CCN(CC)S(=O)(=O)c1ccc(NC(=O)CCC2CCCCC2)cc1

EC50 [12]: 3.32 µM (active)
SMILES: COc1cccc(CNC(=O)CSCc2cnn(-c3ccccc3)c2-n2cccc2)c1OC

IC50 [14]: 9.49 µM (not active)
EC50 [12]: 3.96 µM (active)
SMILES: Cc1cc(NC(=O)COC(=O)C(Nc2ccc(C(F)(F)F)cc2Cl)C(C)C)no1 (stereo unspecified)

IC50 [4]: 7.16 µM (active)
IC50 [5]: 8.91 µM (active)
SMILES: COc1ccc2[nH]c3c(c2c1)CCN1C(=O)C(CC(=O)NCCc2ccccn2)C[C@H](C(=O)N2CCOCC2)[C@@]31CCC1CCCC1 (stereo partly specified)

IC50 [3]: 13.2 µM (active)
SMILES: CC(C)c1nc(C(=O)N2CCCC(N3CCN(c4cccc(Cl)c4)CC3)C2)cs1 (stereo unspecified)

Second part, the molecule before the results:

SMILES: COc1ccc(-c2csc3nc(-c4cccnc4)nc(Cl)c23)cc1OC
EC50 [1]: 11.5 µM (active)
EC50 [2]: 10.4 µM (active)

SMILES: CCN1CCN(c2ccc(NC(=O)c3ccc4c(c3)nc(O)n4Cc3ccc(OC)cc3)cc2)CC1
EC50 [1]: 34.2 µM (active)
EC50 [2]: 32.2 µM (active)

SMILES: COc1ccc(N2CCN(S(=O)(=O)c3cc(-c4cc(C)no4)ccc3C(C)C)CC2)cc1
EC50 [6]: > 350 µM (not active)
EC50 [7]: > 350 µM (not active)

SMILES: CCCN=C(S)N1CCCC(c2nc3ccccc3[nH]2)C1 (stereo unspecified)
EC50 [6]: > 350 µM (not active)
EC50 [7]: > 350 µM (not active)
EC50 [10]: > 195 µM (not active)

SMILES: COc1cc2c(cc1OC)C1(Nc3c-2c(C)nn3-c2ccccc2)C(=O)Nc2ccccc21 (stereo unspecified)
EC50 [2]: 73.2 µM (active)

SMILES: O=C1C=C(c2ccc(Cl)c(C(F)(F)F)c2)C[C@@H](c2ccc3c(c2)OCO3)C1
IC50 [4]: 5.66 µM (active)
IC50 [5]: 5.82 µM (active)
AC50 [13]: 5.04 µM (active)

SMILES: O=C(CSc1c[nH]c2ccccc12)NCc1ccc2c(c1)OCO2
EC50 [6]: > 350 µM (not active)
EC50 [7]: > 350 µM (not active)

SMILES: N=c1c2c(ncn1Cc1ccco1)Oc1c(ccc3ccccc13)C2c1ccccc1 (stereo unspecified)
AC50 [13]: 2.25 µM (active)
EC50 [1]: 5.53 µM (active)
EC50 [2]: 5.92 µM (active)

SMILES: CCCOc1cccc(C2C(C(=O)c3ccco3)=C(O)C(=O)N2CCCn2ccnc2)c1 (stereo unspecified)
EC50 [6]: > 350 µM (not active)
EC50 [7]: > 350 µM (not active)

SMILES: C[C@H](CO)N1C[C@H](C)[C@H](CN(C)S(=O)(=O)c2cccc(F)c2)Oc2cc(Br)ccc2S1(=O)=O
AC50 [15]: 33.5 µM (active)
AC50 [16]: 5.29 µM (active)
AC50 [17]: 3.27 µM (active)

SMILES: Cc1ccc(NC(=O)CCC(=O)N/N=C/c2ccc(O)cc2O)cc1
EC50 [6]: > 350 µM (not active)
EC50 [7]: > 350 µM (not active)
IC50 [18]: 56.6 µM (active)

SMILES: C[C@H](CO)N1C[C@H](C)[C@H](CN(C)Cc2ccccc2)Oc2cc(-c3ccccc3)ccc2S1(=O)=O
AC50 [15]: 26.7 µM (active)
AC50 [16]: 18.9 µM (active)
AC50 [17]: 21 µM (active)

SMILES: Cn1c(=O)cc(C(=O)N/N=C/c2ccc(F)cc2)[nH]c1=O
EC50 [6]: > 350 µM (not active)
EC50 [7]: > 350 µM (not active)
